Consider 57 compounds from BindingDB's records for doi:10.7270/Q2319T8T (The Scripps Research Institute Molecular Screening Center, 2007).

Structures are written as SMILES.

Sequence of Steroidogenic factor 1 (Q13285 whole entry, the tested form may be a part): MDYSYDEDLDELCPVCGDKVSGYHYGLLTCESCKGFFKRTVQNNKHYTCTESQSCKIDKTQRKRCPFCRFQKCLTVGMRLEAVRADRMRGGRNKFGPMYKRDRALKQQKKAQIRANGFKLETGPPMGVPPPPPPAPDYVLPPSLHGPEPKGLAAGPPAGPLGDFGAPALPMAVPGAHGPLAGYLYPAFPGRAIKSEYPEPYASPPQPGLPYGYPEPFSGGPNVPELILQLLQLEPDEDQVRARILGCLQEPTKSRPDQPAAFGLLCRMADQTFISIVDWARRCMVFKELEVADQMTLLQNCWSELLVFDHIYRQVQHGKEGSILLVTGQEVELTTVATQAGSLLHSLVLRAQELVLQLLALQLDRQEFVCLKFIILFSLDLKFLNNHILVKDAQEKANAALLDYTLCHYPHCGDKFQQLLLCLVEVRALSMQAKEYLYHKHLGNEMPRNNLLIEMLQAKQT

One assay concerns the target Steroidogenic factor 1 (Homo sapiens, UniProt Q13285). The experiment in a line: blockers of SF-1 LBD reporter transcription – cell-based, CHO-K1, Gal4-SF-1 LBD, luciferase luminescence, dose response (AID 600).
Conditions: not given
Usually IC50 stands for the midpoint of a concentration-inhibition curve. In the case of `Oc1c(CN2CCOCC2)cc(COCc2ccccc2)c2cccnc12` [5-(benzoxymethyl)-7-(morpholinomethyl)quinolin-8-ol], it took 6.06 µM to reach half-maximal inhibition (IC50).
The same measure, in the same setting: with `CC(C)(C)c1ccc(-c2noc(CCC(N)=O)n2)cc1` [3-[3-(4-tert-butylphenyl)-1,2,4-oxadiazol-5-yl]propanamide] the figure was 0.069 µM; with `CCc1ccc2oc(-c3cc(N)ccc3O)nc2c1` [(6E)-4-amino-6-(5-ethyl-3H-1,3-benzoxazol-2-ylidene)-1-cyclohexa-2,4-dienone], greater than 3.67 µM; with `O=S1(=O)C=C(Sc2nnc(-c3ccccc3)o2)c2ccccc21`, 3.9 µM.
`CCC(NC(=O)Nc1nnc(C(F)(F)F)s1)(C(F)(F)F)C(F)(F)F` had an IC50 greater than 11 µM.
Still for that read-out and setting: with `COCCn1c(C)cc(C(=O)CSc2nnc(C)s2)c1C` [1-[1-(2-methoxyethyl)-2,5-dimethyl-1H-pyrrol-3-yl]-2-[(5-methyl-1,3,4-thiadiazol-2-yl)thio]ethanone] the figure was 5.45 µM; with `COc1cc(CN2CCN(c3cc(C)ccc3C)CC2)ccc1O` [4-[[4-(2,5-dimethylphenyl)-1-piperazinyl]methyl]-2-methoxyphenol], 4.07 µM.
The same measure, in the same setting: with `Fc1ccc(-c2nnc(NC3=NCCCCC3)o2)cc1` [5-(4-fluorophenyl)-N-(3,4,5,6-tetrahydro-2H-azepin-7-yl)-1,3,4-oxadiazol-2-amine] the figure was 4.83 µM.
Compound `CCCN1C=CC(=C2C(=O)c3ccccc3C2=O)C=C1` [2-(1-propyl-4-pyridinylidene)indene-1,3-dione] registered a concentration for half-maximal inhibition (IC50) of 0.363 µM. This IC50 is about 13-fold lower than that of the compound before.
Same read-out and setting: the result for `CN(C)c1ccc(-c2nc3ccccc3n2C)cc1` [MLS000089904] reads greater than 3.67 µM; that for `c1csc(CNc2ncnc3sccc23)c1` [2-thenyl(thieno[2,3-d]pyrimidin-4-yl)amine], 3.49 µM; that for `Cc1cc(C=Nn2cnnc2)c(C)n1-c1ccc(OCc2ccc(F)cc2)cc1` [MLS000112167], greater than 3.67 µM.
The same measure, in the same setting: with `CCn1nc(-c2ccccc2)nc2c(=O)n(C)c(=O)nc1-2` [1-Ethyl-6-methyl-3-phenyl-1H-pyrimido[5,4-e][1,2,4]triazine-5,7-dione] the figure was 4.73 µM; with `Cc1ccccc1NC(=O)N1CCCC(c2nc(-c3ccc(C(C)C)cc3)no2)C1` (configuration not stated) [3-[3-(4-Isopropyl-phenyl)-[1,2,4]oxadiazol-5-yl]-piperidine-1-carboxylic acid o-tolylamide], 7.13 µM.
For the compound `Cc1cc(C=Nn2cnnc2)c(C)n1-c1ccc(OCc2ccccc2F)cc1` [MLS000112180], the IC50 was greater than 3.67 µM.
On the same count and under the same terms, the result for `c1ccc2nc(-c3nc4ccccc4[nH]3)ccc2c1` [SMR000008748] reads 2.38 µM; that for `COc1ccc(-n2ncc3c(N(C)C4CCCCC4)ncnc32)cc1` [MLS000100813], 0.292 µM; that for `CN(C)c1ccc(N=CCC(=O)c2ccccc2)cc1` [(E)-3-[4-(dimethylamino)anilino]-1-phenyl-2-propen-1-one], greater than 11 µM.
On the same count and under the same terms, the result for `O=C(c1ccc2c3c(cccc13)C(=O)N(O)C2=O)N1CCCCC1` [2-hydroxy-6-(piperidine-1-carbonyl)benzo[de]isoquinoline-1,3-dione] reads 1.92 µM; that for `CCn1c2ccccc2c2cc(NC(=O)CSc3nnnn3-c3ccccc3)ccc21` [MLS000051054], 6.92 µM; that for `Cc1cnc(C(=O)Nc2cccc3cccnc23)cn1` [5-Methyl-pyrazine-2-carboxylic acid quinolin-8-ylamide], 8.91 µM.
Same read-out and setting: with `Cc1ccc(Nc2cc(C)nn2-c2nc(C)cc(O)n2)cc1` [6-methyl-2-[3-methyl-5-(4-methylanilino)pyrazol-1-yl]-1H-pyrimidin-4-one] the figure was 4.32 µM; with `Cc1ccc(N2C(=O)c3ccccc3C2O)nc1` (configuration not stated) [2-(5-methylpyridin-2-yl)-3-oxidanyl-3H-isoindol-1-one], 8.67 µM; with `CCOc1ccccc1C(=O)N1CCN(c2cccc(Cl)c2)CC1` [1-(3-chlorophenyl)-4-(2-ethoxybenzoyl)piperazine], greater than 1.22 µM.
For the compound `COc1cc(OC)cc(-c2cc3nc(C)c(CCC(=O)O)c(C)n3n2)c1` [3-[2-(3,5-dimethoxyphenyl)-5,7-dimethyl-6-pyrazolo[1,5-a]pyrimidinyl]propanoic acid], half-maximal inhibition (IC50) was put at 0.625 µM. That is a sub-micromolar value.
On the same count and under the same terms, the result for `C=CS(=O)(=O)c1ccc(Oc2ccc(S(=O)(=O)C=C)cc2)cc1` [1-ethenylsulfonyl-4-(4-ethenylsulfonylphenoxy)benzene] reads 4.19 µM; that for `CC1CCc2nc(NC(=O)c3ccco3)sc2C1` (configuration not stated) [MLS000063711], greater than 11 µM; that for `O=S1(=O)Nc2c(ccc3cccnc23)-c2ccccc21` [5H-quinolino[8,7-c][1,2]benzothiazine 6,6-dioxide], 5.46 µM.
The same measure, in the same setting: with `Cc1ccc(-c2nc(-c3ccccc3)no2)c(Cl)c1` [5-(2-chloranyl-4-methyl-phenyl)-3-phenyl-1,2,4-oxadiazole] the figure was 4.71 µM.
On the same count and under the same terms, the result for `O=C(O)c1cccc(COc2ccccc2Cl)c1` [3-[(2-chloranylphenoxy)methyl]benzoic acid] reads 0.69 µM; that for `COc1cc2nc(CN3CC=C(c4ccccc4)CC3)nc(O)c2cc1OC` [MLS000053305], 1.3 µM.
As for `c1ccc(-c2cn3c4c(sc3n2)CCCC4)cc1` [2-phenyl-5,6,7,8-tetrahydroimidazo[2,1-b][1,3]benzothiazole], 4.54 µM corresponded to half-maximal inhibition (IC50).
Same read-out and setting: with `CCOc1ccc(-c2noc(CCC(=O)O)n2)cc1` [3-(3-p-phenetyl-1,2,4-oxadiazol-5-yl)propionic acid] the figure was 3.89 µM; with `O=C(Nc1ccccc1NC(=O)NC1CCCCC1)NC1CCCCC1` [1-cyclohexyl-3-[2-(cyclohexylcarbamoylamino)phenyl]urea], 1.64 µM.
The same measure, in the same setting: the result for `CCOc1ccc(-c2cc(CCCC(=O)NCCCOC)no2)cc1` [4-[5-(4-ethoxyphenyl)-1,2-oxazol-3-yl]-N-(3-methoxypropyl)butanamide] reads 4.46 µM; that for `Cc1cc(C=c2sc3nc4ccccc4n3c2=O)c(C)n1-c1ccccn1` [2-[(2,5-dimethyl-1-pyridin-2-yl-pyrrol-3-yl)methylidene]-[1,3]thiazolo[3,2-a]benzimidazol-1-one], greater than 0.00503 µM.
The compound `Cn1cc(C=Nn2cnc3scc(-c4ccc(Cl)cc4)c3c2=O)c2ccccc21` [5-(4-chlorophenyl)-3-[(1-methyl-3-indolyl)methylideneamino]-4-thieno[2,3-d]pyrimidinone] displayed an IC50 of 9.07 µM.
Same read-out and setting: the result for `CCCCOc1ccccc1NC(=O)Cn1c(-c2nonc2N)nc2ccccc21` [2-[2-(4-amino-1,2,5-oxadiazol-3-yl)-1-benzimidazolyl]-N-(2-butoxyphenyl)acetamide] reads greater than 3.67 µM; that for `Cc1ccc2c(c1)[nH]c1c(N3CCN(Cc4ccccc4)CC3)ncnc12` [SMR000044826], greater than 3.67 µM.
In turn, `O=C(Oc1ccc(-c2nc(-c3ccccn3)no2)cc1)c1ccccc1` [4-[3-(2-pyridinyl)-1,2,4-oxadiazol-5-yl]phenyl benzoate] yielded an IC50 of 6.83 µM. This lies in the single-digit micromolar range.
Same read-out and setting: the result for `CCN(CC)c1ccc2c(c1)OC(=N)C(C#N)C2c1cccnc1` (configuration not stated) [2-amino-7-(diethylamino)-4-(3-pyridinyl)-4H-1-benzopyran-3-carbonitrile] reads greater than 3.67 µM.
Still for that read-out and setting: the result for `CCOC(=O)C1CCN(c2ncnc3c2cnn3-c2ccc(Cl)cc2)CC1` [1-[1-(4-chlorophenyl)-4-pyrazolo[3,4-d]pyrimidinyl]-4-piperidinecarboxylic acid ethyl ester] reads 3.42 µM; that for `O=C(NC1CC1)c1ccc(-c2nc3ccccc3s2)s1` [5-(1,3-benzothiazol-2-yl)-N-cyclopropyl-2-thiophenecarboxamide], 2.81 µM.
Still for that read-out and setting: with `Cc1cc(NC(=O)CCCS(=O)(=O)c2nc(-c3cccs3)cc(C(F)(F)F)n2)no1` [MLS000086269] the figure was 8.2 µM; with `c1ccc(-c2cn3nc(-c4ccccc4)sc3n2)cc1` [2,6-diphenylimidazo[2,1-b][1,3,4]thiadiazole], 2.02 µM.

Staying with this assay, now noted: inactive by the depositor's call.
Consider `Cn1c(-c2ccco2)nc2cc3ccccc3cc21` [2-(2-furanyl)-3-methylbenzo[f]benzimidazole], for which half-maximal inhibition (IC50) required 10.4 µM.
Still for that read-out and setting: with `Cn1c(=O)c2c(nc(NCc3ccco3)n2C/C=C/c2ccccc2)n(C)c1=O` [7-[(E)-cinnamyl]-8-(2-furfurylamino)-1,3-dimethyl-xanthine] the figure was 16.9 µM.
Turning to `CCCCOc1ccc(S(=O)(=O)Nc2cccnc2)cc1` [4-butoxy-N-(3-pyridinyl)benzenesulfonamide], the midpoint of inhibition, the IC50, lay at 25 µM.
Still for that read-out and setting: the result for `CCCCN(CCCC)S(=O)(=O)c1ccc(C(=O)Nc2nnc(CSC)o2)cc1` [4-(dibutylsulfamoyl)-N-[5-(methylsulfanylmethyl)-1,3,4-oxadiazol-2-yl]benzamide] reads 16.5 µM; that for `Cc1ccnc(SCC(=O)Nc2sc3c(c2C#N)CCCC3)n1` [MLS000077260], 13.4 µM.
Same read-out and setting: the result for `O=S(=O)(C/C(=C/CO)S(=O)(=O)c1ccccc1)c1ccccc1` [(Z)-3,4-bis(benzenesulfonyl)but-2-en-1-ol] reads 18 µM.
On the same count and under the same terms, the result for `CCc1ccc(-c2nc(CSCC(=O)N3CCN(c4ncccn4)CC3)c(C)o2)cc1` [2-[[2-(4-ethylphenyl)-5-methyl-1,3-oxazol-4-yl]methylsulfanyl]-1-(4-pyrimidin-2-ylpiperazin-1-yl)ethanone] reads 37.1 µM.
In turn, `CCOC(=O)c1oc2ccc(S(=O)(=O)Nc3ccc4c(c3)n(C)c(=O)n4C)cc2c1C` [5-[(1,3-dimethyl-2-oxo-5-benzimidazolyl)sulfamoyl]-3-methyl-2-benzofurancarboxylic acid ethyl ester] showed an IC50 of 25.5 µM.
The same measure, in the same setting: the result for `Cn1nc(CC(=O)Nc2ccc3c(c2)OCCO3)c2ccccc2c1=O` [MLS000047020] reads 12.8 µM; that for `Cn1c(-c2ccccc2)cc2c3no[n+]([O-])c3ccc21` [6-methyl-3-oxidanidyl-7-phenyl-pyrrolo[2,3-g][2,1,3]benzoxadiazol-3-ium], 15 µM.
The same measure, in the same setting: the result for `CCOc1ccc(-c2cc(CCCC(=O)Nc3cc(OC)ccc3OC)no2)cc1` [MLS000045930] reads 12.7 µM; that for `FC(F)(F)c1ccc(N2CCN(c3cc(-c4ccccc4)nc4ncnn34)CC2)nc1` [5-Phenyl-7-[4-(5-trifluoromethyl-pyridin-2-yl)-piperazin-1-yl]-[1,2,4]triazolo[1,5-a]pyrimidine], 21.2 µM.
